Results on 10 compounds are retold here after ChEMBL document CHEMBL5226310, “Synthesis and Characterization of Novel Mono- and Bis-Guanyl Hydrazones as Potent and Selective ASIC1 Inhibitors Able to Reduce Brain Ischemic Insult” (J Med Chem, 2021).

Structures are written as SMILES. The source made the active and inactive calls. The rule behind the calls is not given here.

One may read the inhibition as the relative decrease from the control value, in per cent. What is called IC50 is the point on the concentration scale where inhibition reaches its midpoint.

Test [1] deals with T1, Acid-sensing ion channel 2 (Mus musculus) (UniProt Q925H0).
T1 sequence (whole entry): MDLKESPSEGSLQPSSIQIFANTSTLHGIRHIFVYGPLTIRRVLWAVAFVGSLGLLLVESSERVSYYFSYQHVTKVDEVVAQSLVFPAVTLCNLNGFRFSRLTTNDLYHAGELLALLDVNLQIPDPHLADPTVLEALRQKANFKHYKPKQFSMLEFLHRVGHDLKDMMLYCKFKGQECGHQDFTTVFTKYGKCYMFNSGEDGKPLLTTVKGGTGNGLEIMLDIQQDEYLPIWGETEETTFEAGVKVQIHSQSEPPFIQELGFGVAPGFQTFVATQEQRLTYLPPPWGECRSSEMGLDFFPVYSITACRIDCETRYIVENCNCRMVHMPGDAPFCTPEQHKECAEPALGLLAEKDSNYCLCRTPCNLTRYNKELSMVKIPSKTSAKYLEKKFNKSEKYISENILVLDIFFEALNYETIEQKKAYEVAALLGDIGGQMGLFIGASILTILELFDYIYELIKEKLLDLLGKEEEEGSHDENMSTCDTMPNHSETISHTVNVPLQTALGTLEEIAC
The test can be described thus: Inhibition of mouse ASIC2a expressed in genetically engineered-CHO-K1 cells at 10 uM preincubated for 10 mins at pH 7.4 followed by cell stimulation with proton injection at pH 6.5 by electro-chromic fluorescence voltage sensor-based assay relative to control.

Test [2] has as its target T2, Acid-sensing ion channel 1 (Mus musculus) (UniProt Q6NXK8).
T2 sequence (whole entry): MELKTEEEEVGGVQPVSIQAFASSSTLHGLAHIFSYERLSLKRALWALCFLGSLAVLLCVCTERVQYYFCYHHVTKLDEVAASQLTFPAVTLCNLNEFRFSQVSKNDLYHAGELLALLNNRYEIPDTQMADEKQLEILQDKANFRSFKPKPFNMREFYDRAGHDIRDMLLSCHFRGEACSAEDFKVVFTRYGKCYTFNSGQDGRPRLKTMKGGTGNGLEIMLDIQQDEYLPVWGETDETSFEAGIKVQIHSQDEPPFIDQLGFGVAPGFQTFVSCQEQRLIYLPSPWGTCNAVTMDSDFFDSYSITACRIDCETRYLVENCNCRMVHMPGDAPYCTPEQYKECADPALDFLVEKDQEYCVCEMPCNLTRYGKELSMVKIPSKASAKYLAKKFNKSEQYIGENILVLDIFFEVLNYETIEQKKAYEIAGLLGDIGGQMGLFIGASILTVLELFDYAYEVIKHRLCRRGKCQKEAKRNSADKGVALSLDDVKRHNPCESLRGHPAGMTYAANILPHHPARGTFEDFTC
The test can be described thus: Inhibition of mouse ASIC1a expressed in genetically engineered-CHO-K1 cells at 10 uM preincubated for 10 mins at pH 7.4 followed by cell stimulation with proton injection at pH 6.5 by electro-chromic fluorescence voltage sensor-based assay relative to control.

Test [3] relates to Cortical neurone. The test can be described thus: Neuroprotective activity in OGD/Rx-induced E16 Wistar rat Primary cortical neurons assessed as increase in cell viability at 0.52 uM incubated for 3 hrs during OGD followed by reoxygenation with compound re-addition measured after 21 hrs by MTT assay. The class given is functional, cell-based. To be noted: time 24.0 hrs. Background: Tetrazolium assays rely on reduction of a dye to a coloured formazan, in cell work by metabolically active cells.

Test [4] concerns the target T3, Acid-sensing ion channel 1 (Homo sapiens, UniProt P78348).
T3 sequence (P78348 whole entry): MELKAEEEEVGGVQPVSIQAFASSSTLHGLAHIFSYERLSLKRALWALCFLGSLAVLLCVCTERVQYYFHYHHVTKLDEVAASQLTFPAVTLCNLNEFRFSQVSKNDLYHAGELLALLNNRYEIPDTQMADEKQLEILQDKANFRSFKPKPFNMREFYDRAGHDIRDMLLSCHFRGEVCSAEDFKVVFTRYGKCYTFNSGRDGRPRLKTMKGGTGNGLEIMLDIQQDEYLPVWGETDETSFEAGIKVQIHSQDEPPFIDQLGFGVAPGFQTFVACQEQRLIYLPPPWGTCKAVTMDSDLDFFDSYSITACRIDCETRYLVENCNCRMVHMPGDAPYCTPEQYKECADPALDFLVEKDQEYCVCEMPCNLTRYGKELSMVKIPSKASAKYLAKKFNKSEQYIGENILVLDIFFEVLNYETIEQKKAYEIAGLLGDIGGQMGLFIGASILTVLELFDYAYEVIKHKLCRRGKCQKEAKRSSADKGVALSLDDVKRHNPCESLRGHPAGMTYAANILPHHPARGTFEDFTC
Kind of test: Inhibition of human ASIC1a in HEK293 cells assessed as inward proton-gated current at pH 6.0 incubated with compound followed by PcTx1 addition by patch-clamp electrophysiology. It counts as cell-based. (In general: In patch-clamp work, channel activity is measured electrically.)

Test [5] relates to Cortical neurone. Kind of test: Neuroprotective activity in OGD/Rx-induced E16 Wistar rat Primary cortical neurons assessed as increase in cell viability at 1.4 uM incubated for 3 hrs during OGD followed by compound removal and reoxygenation measured after 21 hrs by MTT assay. It counts as functional, cell-based.
Test [6] concerns Cortical neurone. Kind of test: Neuroprotective activity in OGD/Rx-induced E16 Wistar rat Primary cortical neurons assessed as increase in cell viability at 1.41 uM incubated for 3 hrs during OGD followed by reoxygenation with compound re-addition measured after 21 hrs by MTT assay. To be noted: time 24.0 hrs. The class given is functional, cell-based.
The test system of test [7] is Cortical neurone. Kind of test: Neuroprotective activity in OGD/Rx-induced E16 Wistar rat Primary cortical neurons assessed as increase in cell viability incubated for 3 hrs during OGD followed by reoxygenation with compound re-addition measured after 21 hrs by MTT assay. It counts as functional, cell-based. To be noted: time 24.0 hrs.
The subject of test [8] is Cortical neurone. The test can be described thus: Neuroprotective activity in OGD/Rx-induced E16 Wistar rat Primary cortical neurons assessed as increase in cell viability at 2.1 uM incubated for 3 hrs during OGD followed by reoxygenation with compound re-addition measured after 21 hrs by MTT assay. To be noted: time 24.0 hrs. It counts as functional, cell-based.
Test [9] relates to Mus musculus. Kind of test: Neuroprotective activity in mouse model of middle cerebral artery occlusion-induced transient brain ischemia assessed as decrease in ischemic volume at 0.6 mg/kg, ip administered thrice measured after 24 hrs (reference value: 58 +/- 2.6 %). The class given is functional. Details: scale not given: the % may be the effect or the level left.
Test [10] relates to Cortical neurone. Kind of test: Neuroprotective activity in OGD/Rx-induced E16 Wistar rat Primary cortical neurons assessed as increase in cell viability at 2.1 uM incubated for 3 hrs during OGD followed by compound removal and reoxygenation measured after 21 hrs by MTT assay. It counts as functional, cell-based.
In test [11] the test system is Cortical neurone. Kind of test: Neuroprotective activity in OGD/Rx-induced E16 Wistar rat Primary cortical neurons assessed as increase in cell viability at 2.59 uM incubated for 3 hrs during OGD followed by reoxygenation with compound re-addition measured after 21 hrs by MTT assay. The class given is functional, cell-based.
Test [12] deals with Cortical neurone. The test can be described thus: Neuroprotective activity in OGD/Rx-induced E16 Wistar rat Primary cortical neurons assessed as increase in cell viability at 1.9 uM incubated for 3 hrs during OGD followed by reoxygenation with compound re-addition measured after 21 hrs by MTT assay. It counts as functional, cell-based. To be noted: time 24.0 hrs.
Test [13] relates to Cortical neurone. The test can be described thus: Neuroprotective activity in OGD/Rx-induced E16 Wistar rat Primary cortical neurons assessed as increase in cell viability at 0.13 uM incubated for 3 hrs during OGD followed by reoxygenation with compound re-addition measured after 21 hrs by MTT assay. It counts as functional, cell-based. To be noted: time 24.0 hrs.
For test [14], the system named is Mus musculus. Kind of test: Neuroprotective activity in mouse model of middle cerebral artery occlusion-induced transient brain ischemia assessed as reduction in neurological deficits at 0.8 mg/kg, ip administered thrice measured after 24 hrs. It counts as functional, organism-based.
Test [15] deals with Mus musculus. The test can be described thus: Neuroprotective activity in mouse model of middle cerebral artery occlusion-induced transient brain ischemia assessed as decrease in ischemic volume at 0.8 mg/kg, ip administered thrice measured after 24 hrs (reference value: 58 +/- 2.6 %). The class given is functional. Details: scale not given: the % may be the effect or the level left.

Test [16] deals with Cortical neurone. The test can be described thus: Neuroprotective activity in OGD/Rx-induced E16 Wistar rat Primary cortical neurons assessed as increase in cell viability at 9.5 uM incubated for 3 hrs during OGD followed by reoxygenation with compound re-addition measured after 21 hrs by MTT assay. To be noted: time 24.0 hrs. The class given is functional, cell-based.
The subject of test [17] is Cortical neurone. Kind of test: Neuroprotective activity in OGD/Rx-induced E16 Wistar rat Primary cortical neurons assessed as increase in cell viability at 0.38 uM incubated for 3 hrs during OGD followed by reoxygenation with compound re-addition measured after 21 hrs by MTT assay. It counts as functional, cell-based. To be noted: time 24.0 hrs.
Test [18] concerns Cortical neurone. Kind of test: Neuroprotective activity in OGD/Rx-induced E16 Wistar rat Primary cortical neurons assessed as increase in cell viability at 3.14 uM incubated for 3 hrs during OGD followed by compound removal and reoxygenation measured after 21 hrs by MTT assay. It counts as functional, cell-based.
Test [19] concerns Cortical neurone. The test can be described thus: Neuroprotective activity in OGD/Rx-induced E16 Wistar rat Primary cortical neurons assessed as increase in cell viability at 3.14 uM incubated for 3 hrs during OGD followed by reoxygenation with compound re-addition measured after 21 hrs by MTT assay. The class given is functional, cell-based. To be noted: time 24.0 hrs.
In test [20] the test system is Cortical neurone. The test can be described thus: Neuroprotective activity in OGD/Rx-induced E16 Wistar rat Primary cortical neurons assessed as increase in cell viability at 2.9 uM incubated for 3 hrs during OGD followed by reoxygenation with compound re-addition measured after 21 hrs by MTT assay. It counts as functional, cell-based. To be noted: time 24.0 hrs.

Regarding `COc1ccc(Cn2nc(-c3ccc(/C=N/NC(=N)N)cc3)cc2-c2ccc(/C=N/NC(=N)N)cc2)cc1`, the inhibition worked out at 69.7% in test [1] and 72.9% in [2]. Further, the outcome in test [3] was Active. Further, the half-maximal inhibitory concentration (IC50) in test [4] was found to be 518 nM.
Turning to `Cn1nc(-c2ccc(/C=N/NC(=N)N)cc2)cc1-c1ccc(/C=N/NC(=N)N)cc1`, the outcome in test [5] and in test [6] was Active. In addition, the figures for the inhibition in [1] and in [2] were 43.9% and 33.1%, respectively. The IC50 in [4] was 1420 nM.
For `N=C(N)N/N=C/c1ccc(-c2cc(-c3ccc(Br)cc3)n[nH]2)cc1`, the Activity result in test [7] was “Dose-Dependent Effect”; in test [9] it was 44%. The outcome in [8] and in test [10] was Active. The inhibition in test [1] worked out at 86.2%; in [2], 24.6%. Moreover, in test [4], the IC50 stood at 1990 nM.
For `N=C(N)N/N=C/c1ccc(-c2cc(-c3ccc(F)cc3)n[nH]2)cc1`, the outcome in test [11] was Active. Moreover, the inhibition is 83.6% in [1] and 41.6% in test [2]. Also, the half-maximal inhibitory concentration (IC50) in test [4] came out at 2590 nM.
With `COc1ccc(Cn2nc(-c3ccc(F)cc3)cc2-c2ccc(/C=N/NC(=N)N)cc2)cc1`, the outcome in test [12] was Active. For the same compound, the inhibition in test [1] is 40.3%. For the same compound, the concentration for half-maximal inhibition (IC50) in [4] was found to be 1990 nM.
`Br.Br.C(=N/NC1=NCCN1)/c1ccc(-c2cc(-c3ccc(/C=N/NC4=NCCN4)cc3)[nH]n2)cc1`: the result in [13] and in test [14] was Active. Besides, the inhibition in [1] is 50.6%; in test [2], -3.26%. In [15], the Activity is 40.9%. In test [4], the concentration for half-maximal inhibition (IC50) came to 972 nM.
Consider `N=C(N)N/N=C/c1ccc(-c2cc(-c3ccc(F)cc3)on2)cc1`, for which the result in test [16] was Active. For the same compound, the figures for the inhibition in test [1] and in test [2] were 95.9% and 24.2%, respectively. In addition, in [4], the IC50 is 9540 nM.
With `Cl.Cl.N=C(N)N/N=C\c1ccc(-c2cc(-c3ccc(/C=N\NC(=N)N)cc3)[nH]n2)cc1`, the outcome in [14] and in test [17] was Active. In addition, the inhibition in test [1] was 61.3%; in test [2] it was 9.09%. For the same compound, the Activity in test [15] is 40.9%. Also, the IC50 in test [4] is 729 nM.
In the case of `Cn1nc(-c2ccc(F)cc2)cc1-c1ccc(/C=N/NC(=N)N)cc1`, the outcome in test [18] and in test [19] was Active. Besides, the inhibition in [1] worked out at 96.6%; in test [2], 16.8%. Moreover, the IC50 in [4] is 3140 nM.
For `CC(C)(C)c1ccc(-c2cccc(-c3ccc(/C=N/NC(=N)N)cc3)c2)cc1`, the outcome in test [20] was Active. The IC50 in test [4] stood at 2950 nM.
